Where two headings read alike, the source gives them in different places.
Assays:
Assay type in all cases: in vivo
[1] = system: pigweed (Amaranthus retroflexus); experiment: Test B pre/postemergence; details: Amaranthus retroflexus; for pest or weed control at 125 g/ha: 125 g ai/ha; for pest or weed control at 500 g/ha: 500 g ai/ha
Summary of the method: (§1)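 Scores reflect visual comparison with untreated controls, where 0 means no effect and 100 complete control. Plants stayed 13 to 15 days in the greenhouse after pre- or postemergence treatment with compounds carried in a non-phytotoxic solvent and surfactant.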

[2] = system: wheat (Triticum aestivum); experiment: Test B pre/postemergence; details: Triticum aestivum; for plant injury at 125 g/ha: 125 g ai/ha; for plant injury at 500 g/ha: 500 g ai/ha
Summary of the method: as §1

[3] = system: cocklebur (Xanthium strumarium); experiment: Test B pre/postemergence; details: Xanthium strumarium; for pest or weed control at 125 g/ha: 125 g ai/ha; for pest or weed control at 500 g/ha: 500 g ai/ha
Summary of the method: as §1

[4] = system: giant foxtail (Setaria faberii); experiment: Test B pre/postemergence; details: Setaria faberi; for pest or weed control at 125 g/ha: 125 g ai/ha; for pest or weed control at 500 g/ha: 500 g ai/ha
Summary of the method: as §1

[5] = system: crabgrass (Digitaria sanguinalis); experiment: Test B pre/postemergence; details: Digitaria sanguinalis; for pest or weed control at 125 g/ha: 125 g ai/ha; for pest or weed control at 500 g/ha: 500 g ai/ha
Summary of the method: as §1

[6] = system: Surinam grass (Brachiaria decumbens); experiment: Test B pre/postemergence; details: Urochloa decumbens; for pest or weed control at 125 g/ha: 125 g ai/ha; for pest or weed control at 500 g/ha: 500 g ai/ha
Summary of the method: as §1

[7] = system: lambsquarters (Chenopodium album); experiment: Test B pre/postemergence; details: Chenopodium album; for pest or weed control at 125 g/ha: 125 g ai/ha; for pest or weed control at 500 g/ha: 500 g ai/ha
Summary of the method: as §1

[8] = system: corn (Zea mays); experiment: Test B pre/postemergence; details: Zea mays
Summary of the method: as §1

[9] = system: morningglory (Ipomoea coccinea); experiment: Test B pre/postemergence; details: Ipomoea; for pest or weed control at 125 g/ha: 125 g ai/ha; for pest or weed control at 500 g/ha: 500 g ai/ha
Summary of the method: as §1

[10] = system: barnyardgrass (Echinochloa crus-galli); experiment: Test B pre/postemergence; details: Echinochloa crus-galli; for pest or weed control at 125 g/ha: 125 g ai/ha; for pest or weed control at 500 g/ha: 500 g ai/ha
Summary of the method: as §1

[11] = system: velvetleaf (Abutilon theophrasti); experiment: Test B pre/postemergence; details: Abutilon theophrasti; for pest or weed control at 125 g/ha: 125 g ai/ha; for pest or weed control at 500 g/ha: 500 g ai/ha
Summary of the method: as §1

[12] = system: umbrella sedge (Cyperus difformis); experiment: Test B flooded paddy test; details: Cyperus difformis, Flood, 1000 g ai/ha; scale 0 to 100; read-out: Plant response rating, Sedge, Umbrella
Summary of the method: (§2)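 Plants were grown to the 2-leaf stage before treatment, then kept in a greenhouse for 13 to 15 days. Injury was rated visually against untreated controls on a 0 to 100 scale, where 0 is no effect and 100 is complete control.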

[13] = system: rice (Oryza sativa); experiment: Test B flooded paddy test; details: Oryza sativa, Flood, 1000 g ai/ha; scale 0 to 100; read-out: Plant response rating, Rice
Summary of the method: as §2

[14] = system: duck salad (Heteranthera limosa); experiment: Test B flooded paddy test; details: Heteranthera limosa, Flood, 1000 g ai/ha; scale 0 to 100; read-out: Plant response rating, Ducksalad
Summary of the method: as §2

[15] = system: barnyardgrass (Echinochloa crus-galli); experiment: Test B flooded paddy test; details: Echinochloa crus-galli, Flood, 1000 g ai/ha; scale 0 (no effect) to 100 (complete control); read-out: Plant response rating, Barnyardgrass
Summary of the method: as §2

[16] = system: wild oat (Avena fatua); experiment: Test B postemergence; details: Avena fatua, post-emergence
Summary of the method: as §1

[17] = system: blackgrass (Alopecurus myosuroides); experiment: Test B postemergence; details: Alopecurus myosuroides, post-emergence
Summary of the method: as §1

Nc1nc(C2CC2)nc(C(=O)OCc2ccccc2)c1Br [Compound 22, phenylmethyl 6-amino-5-bromo-2-cyclopropyl-4-pyrimidinecarboxylate] gave a pest or weed control at 125 g/ha ([1]; post-emergence, Postemergence, scale 0 to 100 (0 no effect, 100 complete control), read-out: Pigweed plant response rating) of 100%, a pest or weed control at 500 g/ha ([1]; post-emergence, Postemergence, scale 0 to 100, read-out: Plant response rating, Pigweed) of 100% and a pest or weed control at 125 g/ha ([1]; pre-emergence, Preemergence, scale 0 to 100 (0 no effect, 100 complete control), read-out: Plant response rating, Pigweed) of 60%. For the same molecule, the pest or weed control at 500 g/ha ([1]; pre-emergence, Preemergence, scale 0 to 100 (0 no effect, 100 complete control), read-out: Pigweed plant response rating) was 80%, the plant injury at 125 g/ha ([2]; post-emergence, Postemergence, scale 0 to 100 (0 no effect, 100 complete control), read-out: Wheat plant response rating) was 0% and the plant injury at 500 g/ha ([2]; post-emergence, Postemergence, scale 0 to 100, read-out: Plant response rating, Wheat) was 70%. The plant injury at 125 g/ha ([2]; pre-emergence, Preemergence, scale 0 to 100 (0 no effect, 100 complete control), read-out: Plant response rating, Wheat) was 10%, the plant injury at 500 g/ha ([2]; pre-emergence, Preemergence, scale 0 to 100 (0 no effect, 100 complete control), read-out: Wheat plant response rating) was 50% and the pest or weed control at 125 g/ha ([3]; post-emergence, Postemergence, scale 0 to 100 (0 no effect, 100 complete control), read-out: Cocklebur plant response rating) was 100%. For the same molecule, the pest or weed control at 500 g/ha ([3]; post-emergence, Postemergence, scale 0 to 100, read-out: Plant response rating, Cocklebur) was 100%, the pest or weed control at 125 g/ha ([3]; pre-emergence, Preemergence, scale 0 to 100 (0 no effect, 100 complete control), read-out: Plant response rating, Cocklebur) was 50% and the pest or weed control at 500 g/ha ([3]; pre-emergence, Preemergence, scale 0 to 100 (0 no effect, 100 complete control), read-out: Cocklebur plant response rating) was 80%. The pest or weed control at 125 g/ha ([4]; post-emergence, Postemergence, scale 0 to 100 (0 no effect, 100 complete control), read-out: Foxtail, Giant plant response rating) was 70%, the pest or weed control at 500 g/ha ([4]; post-emergence, Postemergence, scale 0 to 100, read-out: Plant response rating, Foxtail, Giant) was 80% and the pest or weed control at 125 g/ha ([4]; pre-emergence, Preemergence, scale 0 to 100 (0 no effect, 100 complete control), read-out: Plant response rating, Foxtail, Giant) was 0%. For the same molecule, the pest or weed control at 500 g/ha ([4]; pre-emergence, Preemergence, scale 0 to 100 (0 no effect, 100 complete control), read-out: Foxtail, Giant plant response rating) was 20%, the pest or weed control at 125 g/ha ([5]; post-emergence, Postemergence, scale 0 to 100 (0 no effect, 100 complete control), read-out: Crabgrass plant response rating) was 50% and the pest or weed control at 500 g/ha ([5]; post-emergence, Postemergence, scale 0 to 100, read-out: Plant response rating, Crabgrass) was 90%. The pest or weed control at 125 g/ha ([5]; pre-emergence, Preemergence, scale 0 to 100 (0 no effect, 100 complete control), read-out: Plant response rating, Crabgrass) was 20%, the pest or weed control at 500 g/ha ([5]; pre-emergence, Preemergence, scale 0 to 100 (0 no effect, 100 complete control), read-out: Crabgrass plant response rating) was 100% and the pest or weed control at 125 g/ha ([6]; post-emergence, Postemergence, scale 0 to 100 (0 no effect, 100 complete control), read-out: Surinam Grass plant response rating) was 80%. It also gave a pest or weed control at 500 g/ha ([6]; post-emergence, Postemergence, scale 0 to 100, read-out: Plant response rating, Surinam Grass) of 90%, a pest or weed control at 125 g/ha ([6]; pre-emergence, Preemergence, scale 0 to 100 (0 no effect, 100 complete control), read-out: Plant response rating, Surinam Grass) of 0% and a pest or weed control at 500 g/ha ([6]; pre-emergence, Preemergence, scale 0 to 100 (0 no effect, 100 complete control), read-out: Surinam Grass plant response rating) of 20%. For the same molecule, the pest or weed control at 125 g/ha ([7]; post-emergence, Postemergence, scale 0 to 100 (0 no effect, 100 complete control), read-out: Lambsquarters plant response rating) was 100%, the pest or weed control at 500 g/ha ([7]; post-emergence, Postemergence, scale 0 to 100, read-out: Plant response rating, Lambsquarters) was 100% and the pest or weed control at 125 g/ha ([7]; pre-emergence, Preemergence, scale 0 to 100 (0 no effect, 100 complete control), read-out: Plant response rating, Lambsquarters) was 70%. For the same molecule, the pest or weed control at 500 g/ha ([7]; pre-emergence, Preemergence, scale 0 to 100 (0 no effect, 100 complete control), read-out: Lambsquarters plant response rating) was 100%, the plant injury at 125 g/ha ([8]; post-emergence, Postemergence, 125 g ai/ha, scale 0 to 100 (0 no effect, 100 complete control), read-out: Corn plant response rating) was 20% and the Corn plant response rating (crop injury, 0 = no effect, 100 = complete kill) at 500 g/ha ([8]; post-emergence, Postemergence, 500 g ai/ha, scale 0 to 100) was 80%. It also gave a Corn plant response rating (crop injury, 0 = no effect, 100 = complete kill) at 125 g/ha ([8]; pre-emergence, Preemergence, 125 g ai/ha, scale 0 to 100 (0 no effect, 100 complete control)) of 10%, a pest or weed control at 125 g/ha ([9]; post-emergence, Postemergence, scale 0 to 100 (0 no effect, 100 complete control), read-out: Morningglory plant response rating) of 90% and a pest or weed control at 500 g/ha ([9]; post-emergence, Postemergence, scale 0 to 100, read-out: Plant response rating, Morningglory) of 100%. The pest or weed control at 125 g/ha ([9]; pre-emergence, Preemergence, scale 0 to 100 (0 no effect, 100 complete control), read-out: Plant response rating, Morningglory) was 100%, the pest or weed control at 500 g/ha ([9]; pre-emergence, Preemergence, scale 0 to 100 (0 no effect, 100 complete control), read-out: Morningglory plant response rating) was 100% and the pest or weed control at 125 g/ha ([10]; post-emergence, Postemergence, scale 0 to 100 (0 no effect, 100 complete control), read-out: Barnyardgrass plant response rating) was 70%. The pest or weed control at 500 g/ha ([10]; post-emergence, Postemergence, scale 0 to 100, read-out: Plant response rating, Barnyardgrass) was 90%, the pest or weed control at 125 g/ha ([10]; pre-emergence, Preemergence, scale 0 to 100 (0 no effect, 100 complete control), read-out: Plant response rating, Barnyardgrass) was 0% and the pest or weed control at 500 g/ha ([10]; pre-emergence, Preemergence, scale 0 to 100 (0 no effect, 100 complete control), read-out: Barnyardgrass plant response rating) was 20%. For the same molecule, the pest or weed control at 125 g/ha ([11]; post-emergence, Postemergence, scale 0 to 100 (0 no effect, 100 complete control), read-out: Velvetleaf plant response rating) was 100%, the pest or weed control at 500 g/ha ([11]; post-emergence, Postemergence, scale 0 to 100, read-out: Plant response rating, Velvetleaf) was 100% and the pest or weed control at 125 g/ha ([11]; pre-emergence, Preemergence, scale 0 to 100 (0 no effect, 100 complete control), read-out: Plant response rating, Velvetleaf) was 30%. It also gave a pest or weed control at 500 g/ha ([11]; pre-emergence, Preemergence, scale 0 to 100 (0 no effect, 100 complete control), read-out: Velvetleaf plant response rating) of 100%, a pest or weed control at 1000 g/ha [12] of 50% and a plant injury at 1000 g/ha [13] of 60%. For the same molecule, the pest or weed control at 1000 g/ha [14] was 90%, the pest or weed control at 1000 g/ha [15] was 80% and the pest or weed control at 125 g/ha ([16]; 125 g ai/ha, scale 0 to 100 (0 no effect, 100 complete control), read-out: Oat, Wild plant response rating) was 10%. For the same molecule, the pest or weed control at 500 g/ha ([16]; 500 g ai/ha, scale 0 to 100, read-out: Plant response rating, Oat, Wild) was 60%, the pest or weed control at 125 g/ha ([17]; 125 g ai/ha, scale 0 to 100 (0 no effect, 100 complete control), read-out: Blackgrass plant response rating) was 60% and the pest or weed control at 500 g/ha ([17]; 500 g ai/ha, scale 0 to 100, read-out: Plant response rating, Blackgrass) was 80%.
